The values that follow come from patent publication US5428048A, “Aryl-N-hydroxyureas as inhibitors of 5-lipoxygenase and anto-arteriosclerotic agents” (American Home Products Corporation, priority 1993, dated 1995).

Each structure is given as a SMILES string.

One experiment has as its system Lipoxygenase. The experiment can be described thus: Ex-Vivo Measurement of Lipoxygenase Inhibition in Orally Dosed Rats (LTB4 in A23187-stimulated blood). Also noted: species or system Male Sprague Dawley rats. To be noted: ex vivo rat, p.o. As to the method: 2. […] After an interval of 3 or 6 hours, the rats were anesthetized with metofane (n =4/group) and blood collected in heparinized tubes. White blood cell counts and differentials were made. One ml of blood from each animal was placed in a 5 ml plastic tube in a shaker bath at 37° C. A23187 at a final concentration of 10 μM was added to the blood and the blood vortexed and incubated for 15 min at 37° C. with gentle shaking. Incubation was terminated by vortexing sample and centrifuging immediately at 1200 xG for 15 min at 4° C. The plasma was transferred to 15 ml plastic tubes each containing 8 ml of methanol to precipitate protein followed by vortexing. The samples were stored at -70° C. overnight and the next day the samples were centrifuged at 800 xG for 15 min to pellet the precipitate. The samples were dried in a Savant SpeedVac Concentrator Model SVC 200H and reconstituted to the original volume with cold RIA or ELISA buffer. The reconstituted samples were stored at -70° C. until assayed. The assay for LTB4 was perforated according to the directions of the [^3 H]RIA kit or ELISA kit (Seragen). The total metabolite level in 1 ml of blood is calculated and reported as ng/10^6 neutrophils. Significance is determined by a one-way analysis of variance with LSD comparisons to control (p<0.05).

Experiment [1] relates to LT-dependent bronchoconstriction. Kind of experiment: Inhibition of Bronchoconstriction in Guinea Pigs Induced by Exogenously Administered Antigen. It is filed as in vivo, Male guinea pigs. The method, then: 4. Inhibition of Brochoconstriction in Guinea Pigs Induced by Exogenously Administered Antigen
Male guinea pigs (Charles River, Wilmington, Mass.) were sensitized 3-4 weeks prior to antigen challenge by administration of 2 i.m. injections of ovalbumin, 1 into each hind limb (35 mg total). Sensitized animals (500-600 g) were fasted overnight prior to experimentation. Conscious animals were then dosed p.o. with drug or vehicle alone (0.5% Tween 80 in H2 O) at the indicated times prior to antigen challenge, or anesthetized animals were dosed i.v. with drug or vehicle alone (DMSO) 5 min prior to antigen challenge. Animals were anesthetized by urethane (2.8 g/kg i.p.). A carotid artery and jugular vein were cannulated to allow for the monitoring of blood pressure and the administration of drugs, respectively. The trachea was then cannulated and connected to a Harvard Apparatus rodent ventilator (S. Natick, Mass.). Spontaneous respiration was abolished by the administration of succinylcholine (2.5 mg/kg i.v.). The animals were then ventilated with room air at a rate of 65 breaths per min. Airway inflation pressure was measured using a Statham pressure transducer (Gould Instruments, Cleveland, Ohio) connected to the tracheal cannula via a side-arm and recorded on a Grass Instruments recorder (Quincy, Mass.). The tidal volume (approximately 10 cc/kg) was adjusted to give a baseline inflation pressure of 8-10 cm H2 O at end inspiration. Animals were then allowed 20 min to stabilize.
Following the stabilization period, animals were given i.v. injections of pyrilamine (5 mg/kg), propranolol (0.1 mg/kg) and indomethacin (10 mg/kg) at 15, 10 and 5 min, respectively, prior to antigen challenge. This pretreatment results in an LT-dependent bronchoconstriction following antigert challenge, which was accomplished by i.v. administration of ovalbumin (10 mg/kg). Only one bronchoconstriction per animal was induced. End-inspiratory inflation pressure (in cm H2 O over baseline) was measured at 5 min post-antigen challenge. A mean value and standard error for the % inhibition of control bronchoconstriction in each drug-treated group was then calculated.

For another experiment, the system named is Low Density Lipoprotein. Kind of experiment: Inhibition of Copper Ion Mediated Oxidation of Low Density Lipoprotein. Conditions: Cu+2 mediated oxidation of rabbit or monkey LDL, 37° C., 90 minutes, 532 nm. The format is biochemical. As to the method: 5. Inhibition of Copper Ion Mediated Oxidation of Low Density Lipoprotein
In this in vitro assay, the inhibition of Cu^+2 mediated oxidation of rabbit or monkey LDL by an invention compound is determined spectrophotometricallly. Oxidation of LDL results in the formation of LDL-diene which absorbs light at 532 nm. Inhibition of oxidation of LDL leads to a decrease in absorbance at 532 nm.
Rabbit or monkey LDL is prepared according to the procedures of Havel, Eder and Gragdon, "The Distribution and Chemical Composition of Ultracentrifugally Separated Lipoproteins in Human Serum,: J. Clin. Invest. 34, 1345-1353 (1955) and Parhtasarathy, Wieland and Steriberg, "A Role for Endothelial Cell Lipoxygenase in the Oxidative Modification of Low Density Lipoprotein," Proc. Natl. Acad. Sci. USA 86, 1046-1050 (1989). Test compound solutions are prepared by dissolving the invention compounds in ethanol at concentrations up to 248 μM. The medium used is Dulbecco's phosphate buffered saline containing 0.5 mg/ml bovine serum albumin. For standards, 0 to 10 μl of an aqueous solution of 1,1,3,3-tetraethoxypropane (1 μmol/ml H2 O) in 4.1 ml of medium is used.
Test compound solution ([…]) is added to 4 ml of medium in incubation tubes. To each tube is added 10 μl of LDL solution and 25 μl of aqueous copper sulfate solution (1.32 mg/ml H2 O). The tubes are incubated at 37° C. for 90 minutes and the oxidation reaction quenched by addition of 1 ml of thiobarbituric acid solution (0.67% in 50% acetic acid). The tubes are heated at 90° C. for 1 hour, then chilled in an ice bath and the chromophore extracted into 2 ml of n-butanol. Absorbence is read at 532 nm and the results are reported as nmols of malondialdehyde equivalents.
Significant differences (p<0.05) are determined by the Dunnett T-test or by the Student-Newman-Keuls Test for significant differences between means. The assay is conducted using several concentrations [I] of the inhibitor test compounds. The LDL solution concentrations at different experiments were either 1.5 mg/ml, 2.5 mg/ml or 10.3 mg/ml. The IC50 is determined by non-linear regression, plotting log [I] vs. % inhibition. (Reference: K. Yagi, Biochemical Medicine 15,212-216 (1976)).

Where [2] appears, read: dose 25 (mg/kg), pretreatment 3 hr.

With `Cc1oc(-c2ccccc2)nc1CCOc1ccc(CN(O)C(N)=O)cc1` [Example 1], the “% Inhibition of LTB4” value with Lipoxygenase (setting [2]) amounted to 79%. For the same compound, the “Bronchoconstriction % Inhibition” value is listed as 66% in experiment [1] (20 mg/kg i.v.), 67% in experiment [1] (25 mg/kg aerosol) and 25% in experiment [1] (25 mg/kg p.o.). Moreover, it took 690 nM to reach half-maximal inhibition in the experiment on Low Density Lipoprotein (IC50).
Turning to `Cc1oc(-c2ccccc2)nc1CCOc1ccc(C(C)N(O)C(N)=O)cc1` (centres unmarked) [Example 4], the “% Inhibition of LTB4” value with Lipoxygenase (setting [2]) is recorded as 57%. For the same compound, the “Bronchoconstriction % Inhibition” value in experiment [1] (25 mg/kg aerosol) worked out at 51%. For the same compound, it took 1300 nM to reach half-maximal inhibition in the experiment on Low Density Lipoprotein (IC50).
Consider `Cc1oc(-c2ccc(C(F)(F)F)cc2)nc1CCOc1ccc(CN(O)C(N)=O)cc1` [Example 13, 1-Hydroxy-1-[4-[2-[5-methyl-2(4-trifluoromethyl-phenyl)-oxazol-4-yl]-ethoxy]benzyl]-urea], for which the “% Inhibition of LTB4” value in the experiment with Lipoxygenase (dose 1 (mg/kg), pretreatment 6 hr) is on record as 50%. The “Bronchoconstriction % Inhibition” value in experiment [1] (20 mg/kg i.v.) worked out at 23%. This compound displayed an IC50 with Low Density Lipoprotein of 820 nM.
With `NC(=O)N(O)Cc1ccc(OCCc2noc(-c3ccccc3)n2)cc1` [Example 21, 1-hydroxy-1-[4-[2-(5-phenyl-[1,2,4]-oxadiazol-3-yl)-ethoxy]-benzyl]-urea], in the experiment with Lipoxygenase (dose 5 (mg/kg), pretreatment 6 hr), the “% Inhibition of LTB4” value came out at 60%. The figures for the “Bronchoconstriction % Inhibition” value in experiment [1] (10 mg/kg i.v.) and in experiment [1] (10 mg/kg p.o.) were 58% and 34%, respectively.

In general, IC50 refers to the point on the concentration scale where inhibition reaches its midpoint.
